The values that follow come from article PMC6246682, “Structural Basis of Tau Interaction With BIN1 and Regulation by Tau Phosphorylation” (Frontiers in Molecular Neuroscience, 2018).

One assay has as its system BIN1 isoform 1. Nature of the assay: 1H-15N HSQC competition with intramolecular BIN1 SH3/CLAP interaction. The note with it: 1H-15N HSQC of BIN1 isoform 1 (0.08 mM), 20°C, 900 MHz, molar ratio 1:8. Format: binding. How it is done: NMR experiments were recorded on Bruker 950-MHz, 900-MHz, or 600-MHz spectrometers all equipped with a triple-resonance cryogenic probe. NMR measurements were performed in 50 mM sodium phosphate buffer, pH 7.3, 30 mM NaCl, 3 mM DTT and 10% D2O (NMR buffer). BIN1 SH3 domain backbone assignment has been previously reported ([Malki et al., 2017]). […] For side-chain assignment, additional 3D^15N NOESY-HSQC, 3D^15N-edited TOCSY, 3D (H)CCH TOCSY, and 3D H(C)CH TOCSY experiments were recorded. A 3D ^13C-edited NOESY was further used for side-chain assignment validation. All assignment experiments were recorded at 5°C. Chemical shift values (Supplementary Table S1) were directly transferred at 20°C, because the differences of chemical shift values were small between 5 and 20°C. […] BIN1 isoform 1 ^1H-^15N HSQC spectra were recorded at 20°C at 900 MHz (0.08 mM sample) with 3096 points (direct) and 280 points (indirect), for spectral width of 14 ppm and 26 ppm, respectively, and 256 scans. A 3D F1 ^13C/^15N-filtered and F3 ^15N-edited NOESY-HSQC, with WATERGATE (WATER suppression by GrAdient-Tailored Excitation) scheme ([Piotto et al., 1992]), named noesyhsqcf3gpwgx13d, part of the Bruker pulse sequence library, was recorded at 20°C at 950 MHz for the detection of intermolecular NOEs to amide groups. […] Spectra were processed using TopSpin software (Bruker) and analyzed by CcpNmr Analysis ([Vranken et al., 2005]).
As NMR is sensitive to mobility, this equilibrium translated into detection of BIN1 SH3 domain signals only upon its release from the intramolecular interaction ([Malki et al., 2017]). […] Consequently, in the presence of the phosphorylated Tau peptide (210–240), BIN1 SH3 domain remained immobilized by the intramolecular interaction with BIN1 isoform1 CLAP domain, mainly adopting the closed conformation.
(A) ^1H-^15N HSQC spectrum of BIN1 isoform 1 (112 KDa, homodimer). […] (B) ^1H-^15N HSQC spectra of BIN1 isoform 1 in the presence of phospho-Tau (210–240), molar ratio 1:8. The signals corresponding to the isolated BIN1 SH3 domain were barely detected.

The target of another assay is T1, BIN1 SH3 domain (Homo sapiens, UniProt O00499).
T1 construct: The BIN1 isoform 1 and BIN1 SH3 domain were expressed and purified as previously described; made in house
T1 sequence (O00499 520-593 limits assumed): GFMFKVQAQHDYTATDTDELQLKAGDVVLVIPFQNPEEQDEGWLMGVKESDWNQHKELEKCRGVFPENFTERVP
Nature of the assay: NMR chemical shift perturbation titration, dissociation constant determination. The assay is classed as binding. The note with it: peptide/BIN1 SH3 molar ratios 0, 0.5, 1, 2, 4, 8 and 12; 1H-15N HSQC.

Description for BIN1 SH3 domain: The weighted average chemical shift differences were calculated as described by [Garrett et al. (1997)] - i.e., (ΔH^2 + (ΔN×0.2)^2)^1/2, with ΔH and ΔN the chemical shift changes for ^1H and ^15N, respectively. Dissociation constants were obtained by fitting the chemical shift perturbation data to the following equation Δδobs = Δδmax(a + b + Kd−((a + b + Kd)^2−4ab)^1/2)/2a where Δδobs is the weighted average of the chemical shifts in the free and bound states and Δδmax is the maximal signal change upon saturation. Kd is the dissociation constant, a and b are the total peptide and BIN1 SH3 concentrations, respectively. Kd were averaged based on chemical shift perturbations of 7 distinct resonances.
Labeled resonances correspond to the major chemical shift perturbations, color coded as in Figure 4A. Enlarged regions of the superimposed spectra show 3 resonances involved in the interaction.
Det ail o f o ver la id 1H-15N HSQC spe ct ra o f BIN1 SH3 do ma in, in t he prese nce o f increa s ing a mo unt o f Tau(210-240) pept ide, mo lar rat io s pe pt ide/BIN1 SH3 0, 0.5, 1, 2, 4, 8 and 12 (co lo r sca le fro m purp le t o gray), o r o f p ho spho-Tau(210-240) pept ide, sa me mo lar rat ios (sa me co lo r sca le). A spect rum is reco rded fo r each t it rat io n po int . […]

Turning to “phosphorylated Tau (210–240): Tau (210–240) phosphorylated by CDK2/CycA3; T212, T231, S235 full, T217 half-phosphorylated”, the “competition with intramolecular BIN1 SH3/CLAP interaction” value in the assay on BIN1 isoform 1 was “not able to displace the intramolecular interaction of BIN1 SH3 with BIN1 CLAP domain”; in the assay with BIN1 isoform 1 (listed as Phospho-Tau (210–240)) it was “cannot compete with the intramolecular interaction of BIN1 SH3 with the CLAP domain”; in the assay with BIN1 isoform 1 (listed as Tau (210–240) phosphorylated at four different sites (T212, T217, T231, and S235)), “unable to compete with the intramolecular interaction of BIN1 SH3 domain with its CLAP domain”; with BIN1 isoform 1 (listed as Tau (210–240) phosphorylated at multiple sites), “not able to compete with the intra-molecular interaction of BIN1 SH3 with the CLAP domain as efficiently as its unphosphorylated counterpart”. Moreover, in the assay with BIN1 SH3 domain, the “saturation / affinity in titration” value is “lo wer a ffin it y”.
